From PubChem BioAssay AID2060903 (Molecular Pharmacology Branch, DTP, NCI, 2025)
“And” between values parts separate entries of the source, which are not always exact repeats. Identical values can stand only once.

Tested on: 377384-186-R-J1-PDC complex spheroid viability
Experiment: Anticancer human tumor 377384-186-R-J1-PDC patient-derived pancreatic carcinoma cell line growth inhibition [RAS]
Conditions: for viability, T/C: stronger effect = lower value
Procedure, shortened: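 Multi-cell-type spheroids: tumor cells plus HUVEC endothelial cells and mesenchymal stem cells. RAS-pathway inhibitors were combined with targeted agents, each dosed in half-log steps down from clinical Cmax, or from 10 microM when Cmax was unknown.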

[1] = curve of first compound, second compound 0.0316 µM
[2] = curve of first compound, second compound 0.1 µM
[3] = curve of first compound, second compound 0.316 µM
[4] = curve of first compound, second compound 1 µM
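Also: spheroids exposed to compounds for seven days before readout.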

With `O=C(c1ccc(F)c(F)c1Nc1ccc(I)cc1F)N1CC(O)([C@@H]2CCCCN2)C1` the viability, T/C (compound 0.00316 µM) was 85.8% [middle of 4 runs], the viability, T/C (compound 0.01 µM) was 79.5% [middle of 4 runs] and the viability, T/C (compound 0.0316 µM) was 56.3% [middle of 4 runs]. For the same molecule, the viability, T/C (compound 0.1 µM) was 21.3% (2×) and 13.7% and 21.1%, the viability, T/C (compound 0.316 µM) was 2.49% [middle of 4 runs] and the viability, T/C (compound 1 µM) was 0.68% [middle of 4 runs]. The IC50 (curve of compound) was 39.2 nM [middle of 4 runs].
For `CC1(C)CCC(Nc2ncc(C(F)(F)F)c(-c3c[nH]c4c(P(C)(C)=O)c(C#N)ccc34)n2)CN1` (stereo not drawn), the viability, T/C (compound 0.000949 µM) was 84% [middle of 4 runs], the viability, T/C (compound 0.003 µM) was 59.5% [middle of 4 runs] and the viability, T/C (compound 0.00949 µM) was 30% [middle of 4 runs]. For the same molecule, the viability, T/C (compound 0.03 µM) was 21.3% [middle of 4 runs], the viability, T/C (compound 0.0949 µM) was 16.6% [middle of 4 runs] and the viability, T/C (compound 0.3 µM) was 16.1% [middle of 4 runs]. For the same molecule, the IC50 (curve of compound) was 4.35 nM [middle of 4 runs].
In the case of `CC(C)n1nc(-c2ccc3oc(N)nc3c2)c2c(N)ncnc21` + C=CC(=O)N1CCN(c2nc(OCC3CCCN3C)nc3c(F)c(-c4nc(N)cc(C)c4C(F)(F)F)c(Cl)cc23)C(C)C1, the IC50 (curve of first compound, second compound 0.00316 µM) is reported as 12.2 nM, the IC50 (curve of first compound, second compound 0.01 µM) is reported as 15 nM and the IC50 [1] is reported as 15.7 nM. It also gave an IC50 [2] of 11.3 nM, an IC50 [3] of 12.7 nM and an IC50 [4] of 15.2 nM. For the same molecule, the viability, T/C (second compound 0.00316 µM, first compound 0.000316 µM) was 93.6%, the viability, T/C (second compound 0.00316 µM, first compound 0.001 µM) was 80.3% and the viability, T/C (second compound 0.00316 µM, first compound 0.00316 µM) was 76%. The viability, T/C (second compound 0.00316 µM, first compound 0.01 µM) was 50.8%, the viability, T/C (second compound 0.00316 µM, first compound 0.0316 µM) was 35.4% and the viability, T/C (second compound 0.00316 µM, first compound 0.1 µM) was 21.1%. The viability, T/C (second compound 0.01 µM, first compound 0.000316 µM) was 87.2%, the viability, T/C (second compound 0.01 µM, first compound 0.001 µM) was 83.1% and the viability, T/C (second compound 0.01 µM, first compound 0.00316 µM) was 68.2%. The viability, T/C (second compound 0.01 µM, first compound 0.01 µM) was 59.4%, the viability, T/C (second compound 0.01 µM, first compound 0.0316 µM) was 36.6% and the viability, T/C (second compound 0.01 µM, first compound 0.1 µM) was 19.9%. The viability, T/C (second compound 0.0316 µM, first compound 0.000316 µM) was 90.5%, the viability, T/C (second compound 0.0316 µM, first compound 0.001 µM) was 76.3% and the viability, T/C (second compound 0.0316 µM, first compound 0.00316 µM) was 64.7%. It also gave a viability, T/C (second compound 0.0316 µM, first compound 0.01 µM) of 61.8%, a viability, T/C (second compound 0.0316 µM, first compound 0.0316 µM) of 40% and a viability, T/C (second compound 0.0316 µM, first compound 0.1 µM) of 17.4%. For the same molecule, the viability, T/C (second compound 0.1 µM, first compound 0.000316 µM) was 91.5%, the viability, T/C (second compound 0.1 µM, first compound 0.001 µM) was 77.2% and the viability, T/C (second compound 0.1 µM, first compound 0.00316 µM) was 67.4%. It also gave a viability, T/C (second compound 0.1 µM, first compound 0.01 µM) of 50.5%, a viability, T/C (second compound 0.1 µM, first compound 0.0316 µM) of 37.9% and a viability, T/C (second compound 0.1 µM, first compound 0.1 µM) of 23.7%. For the same molecule, the viability, T/C (second compound 0.316 µM, first compound 0.000316 µM) was 81.3%, the viability, T/C (second compound 0.316 µM, first compound 0.001 µM) was 82.2% and the viability, T/C (second compound 0.316 µM, first compound 0.00316 µM) was 70%. It also gave a viability, T/C (second compound 0.316 µM, first compound 0.01 µM) of 48.5%, a viability, T/C (second compound 0.316 µM, first compound 0.0316 µM) of 40% and a viability, T/C (second compound 0.316 µM, first compound 0.1 µM) of 18%. The viability, T/C (second compound 1 µM, first compound 0.000316 µM) was 89.7%, the viability, T/C (second compound 1 µM, first compound 0.001 µM) was 89.2% and the viability, T/C (second compound 1 µM, first compound 0.00316 µM) was 81.7%. For the same molecule, the viability, T/C (second compound 1 µM, first compound 0.01 µM) was 55.4%, the viability, T/C (second compound 1 µM, first compound 0.0316 µM) was 37.7% and the viability, T/C (second compound 1 µM, first compound 0.1 µM) was 20.4%.
`CCc1c2c(nc3ccc(O)cc13)-c1cc3c(c(=O)n1C2)COC(=O)[C@]3(O)CC` + C#Cc1c(F)ccc2cc(O)cc(-c3ncc4c(N5CC6CCC(C5)N6)nc(OCC56CCCN5CC(F)C6)nc4c3F)c12 showed an IC50 [1] of under 0.949 nM, an IC50 [2] of under 0.949 nM and an IC50 [3] of under 0.949 nM. For the same molecule, the IC50 [4] was under 0.949 nM, the IC50 (curve of first compound, second compound 3.16 µM) was under 0.949 nM and the IC50 (curve of first compound, second compound 10 µM) was under 0.949 nM. For the same molecule, the viability, T/C (second compound 0.0316 µM, first compound 0.000949 µM) was 19.9%, the viability, T/C (second compound 0.0316 µM, first compound 0.003 µM) was 11.3% and the viability, T/C (second compound 0.0316 µM, first compound 0.00949 µM) was 6.54%. For the same molecule, the viability, T/C (second compound 0.0316 µM, first compound 0.03 µM) was 4.38%, the viability, T/C (second compound 0.0316 µM, first compound 0.0949 µM) was 1.63% and the viability, T/C (second compound 0.0316 µM, first compound 0.3 µM) was 1.45%. It also gave a viability, T/C (second compound 0.1 µM, first compound 0.000949 µM) of 10.2%, a viability, T/C (second compound 0.1 µM, first compound 0.003 µM) of 5.47% and a viability, T/C (second compound 0.1 µM, first compound 0.00949 µM) of 3.3%. The viability, T/C (second compound 0.1 µM, first compound 0.03 µM) was 2.38%, the viability, T/C (second compound 0.1 µM, first compound 0.0949 µM) was 1.62% and the viability, T/C (second compound 0.1 µM, first compound 0.3 µM) was 1.48%. The viability, T/C (second compound 0.316 µM, first compound 0.000949 µM) was 4.45%, the viability, T/C (second compound 0.316 µM, first compound 0.003 µM) was 3.34% and the viability, T/C (second compound 0.316 µM, first compound 0.00949 µM) was 2.87%. For the same molecule, the viability, T/C (second compound 0.316 µM, first compound 0.03 µM) was 1.65%, the viability, T/C (second compound 0.316 µM, first compound 0.0949 µM) was 1.51% and the viability, T/C (second compound 0.316 µM, first compound 0.3 µM) was 1.36%. The viability, T/C (second compound 1 µM, first compound 0.000949 µM) was 3.89%, the viability, T/C (second compound 1 µM, first compound 0.003 µM) was 2.04% and the viability, T/C (second compound 1 µM, first compound 0.00949 µM) was 2.4%. The viability, T/C (second compound 1 µM, first compound 0.03 µM) was 1.31%, the viability, T/C (second compound 1 µM, first compound 0.0949 µM) was 1.14% and the viability, T/C (second compound 1 µM, first compound 0.3 µM) was 1.05%. The viability, T/C (second compound 3.16 µM, first compound 0.000949 µM) was 1.66%, the viability, T/C (second compound 3.16 µM, first compound 0.003 µM) was 2.07% and the viability, T/C (second compound 3.16 µM, first compound 0.00949 µM) was 2.02%. For the same molecule, the viability, T/C (second compound 3.16 µM, first compound 0.03 µM) was 1.73%, the viability, T/C (second compound 3.16 µM, first compound 0.0949 µM) was 1.46% and the viability, T/C (second compound 3.16 µM, first compound 0.3 µM) was 0.91%. The viability, T/C (second compound 10 µM, first compound 0.000949 µM) was 1.73%, the viability, T/C (second compound 10 µM, first compound 0.003 µM) was 0.98% and the viability, T/C (second compound 10 µM, first compound 0.00949 µM) was 1.39%. It also gave a viability, T/C (second compound 10 µM, first compound 0.03 µM) of 1.15%, a viability, T/C (second compound 10 µM, first compound 0.0949 µM) of 0.97% and a viability, T/C (second compound 10 µM, first compound 0.3 µM) of 0.48%.
